Test results taken from patent US8937062B2, “Compositions and methods for treating, reducing, ameliorating, or preventing infections caused by antibacterial drug-resistant bacteria” (Bausch & Lomb Incorporated, priority 2007, dated 2015).
Values after ≈ are worked out from the molar mass of the structure shown. Where two headings read alike, the source gives them in different places.

Legend:
[1] = tested on: Ofloxacin-resistant Enterobacteriaceae; test: organism not typed; format: cell-based
Description: (§1) As disclosed above, most of these bacteria strains are also relevant to infections of the ear and upper respiratory tract.

[2] = tested on: APC-resistant Haemophilus influenza.; test: MIC90, agar plate dilution method (NCCLS), Table 2; format: cell-based; conditions: for MIC90 Range: APC-resistant Haemophilus influenza., 10 isolates; for MIC90: Haemophilus
Experimental: (§2) The MIC90 values for this test were determined by the agar plate dilution method according to the National Committee for Clinical Laboratory Standards (“NCCLS”).

[3] = tested on: GM-resistant S. aureus; test: MIC90, agar plate dilution method (NCCLS), Table 2; format: cell-based; conditions: Staphylococcus aureus, 10 isolates
Experimental: as §2

[4] = tested on: PCG-resistant S. pneumoniae; test: MIC90, agar plate dilution method (NCCLS), Table 2; format: cell-based; conditions: 10 isolates; for MIC90: Streptococcus pneumoniae
Experimental: as §2

[5] = tested on: GM-resistant P. aeruginosa; test: MIC90, agar plate dilution method (NCCLS), Table 2; format: cell-based; conditions: 10 isolates; for MIC90: Pseudomonas aeruginosa
Experimental: as §2

[6] = tested on: OFLX-resistant S. aureus; test: MIC90, agar plate dilution method (NCCLS), Table 2; format: cell-based; conditions: Staphylococcus aureus, 10 isolates
Experimental: as §2

[7] = tested on: OFLX-resistant Enterobacteriaceae; test: MIC90, agar plate dilution method (NCCLS), Table 2; format: cell-based; conditions: for MIC90 Range: OFLX-resistant Enterobacteriaceae, 10 isolates
Experimental: as §2

[8] = tested on: Gentamicin-resistant Staphylococcus aureus; test: In vitro anti-bacterial activity, resistant clinical isolates, fifth test, Table 6; format: cell-based; conditions: read-out: MIC90
Description: as §1

[9] = tested on: Penicillin-resistant Streptococcus pneumoniae; test: as above; format: cell-based; conditions: read-out: MIC90
Description: as §1

[10] = tested on: Gentamicin-resistant Pseudomonas aeruginosa; test: as above; format: cell-based; conditions: read-out: MIC90
Description: as §1

[11] = tested on: Ofloxacin-resistant Staphylococcus aureus; test: as above; format: cell-based; conditions: read-out: MIC90
Description: as §1

[12] = tested on: S. aureus Clinical Isolates; test: In vitro activity against clinical isolates, sixth test, Table 7; format: cell-based; conditions: Staphylococcus aureus, 49 isolates
[13] = tested on: S. pneumoniae Clinical Isolates; test: as above; format: cell-based; conditions: 78 isolates
[14] = tested on: Methicillin-Resistant S. aureus Isolates; test: In vitro anti-bacterial activity, fourth test, Table 5; format: cell-based, Staphylococcus aureus; conditions: Staphylococcus aureus, read-out: MIC90
Experimental: In a fourth test, the anti-bacterial activity of the compound having Formula IV was tested against some methicillin-resistant S. aureus bacteria strains and compared to the anti-bacterial activity of three commercially available antibiotics: nadifloxacin (“NDFX”), ofloxacin (“OFLX”), and sparfloxacin (“SPFX”).

[15] = tested on: methicillin-resistant S. aureus; test: MIC90, Japanese Society of Chemotherapy guidelines (1993), Table 3; format: cell-based; conditions: Staphylococcus aureus, read-out: MIC90
Experimental: (§3) In a second test, compounds having Formulae IV and V, their racemic mixture, and OFLX were tested in vitro against S. aureus strains that are resistant to methicillin or penicillin. The test was conducted according to the guidelines of the Japanese Society of Chemotherapy (1993).

[16] = tested on: penicillin-resistant S. aureus; test: as above; format: cell-based; conditions: Staphylococcus aureus, read-out: MIC90
Experimental: as §3

CCn1cc(C(=O)O)c(=O)c2cc(F)c(N3CCNCC3)cc21 [NFLX, norfloxacin] was tested, and the MIC90 [1] was 128 µg/mL (≈ 401 µM), the “MIC90 Range” value [2] was “≦0.06 μg/ml” and the MIC90 ([2]; read-out: MIC90 Geometric Mean) was at most 0.06 µg/mL. The MIC90 ([2]; read-out: MIC90 Value) was at most 0.06 µg/mL, the MIC90 ([3]; read-out: MIC90 Geometric Mean) was 48.5 µg/mL (≈ 152 µM) and the MIC90 ([3]; read-out: MIC90 Value) was over 128 µg/mL. The “MIC90 Range” value [4] was 2 to 8 µg/mL, the MIC90 ([4]; read-out: MIC90 Geometric Mean) was 4.29 µg/mL (≈ 13.4 µM) and the MIC90 ([4]; read-out: MIC90 Value) was 8 µg/mL (≈ 25.1 µM). For the same compound, the “MIC90 Range” value [5] was 0.5 to 128 µg/mL, the MIC90 ([5]; read-out: MIC90 Geometric Mean) was 5.66 µg/mL (≈ 17.7 µM) and the MIC90 ([5]; read-out: MIC90 Value) was 128 µg/mL (≈ 401 µM). For the same compound, the MIC90 ([6]; read-out: MIC90 Geometric Mean) was 194 µg/mL (≈ 608 µM), the MIC90 ([6]; read-out: MIC90 Value) was over 128 µg/mL and the “MIC90 Range” value [7] was 16 to 128 µg/mL. For the same compound, the MIC90 ([7]; read-out: MIC90 Geometric Mean) was 48.5 µg/mL (≈ 152 µM), the MIC90 ([7]; read-out: MIC90 Value) was 128 µg/mL (≈ 401 µM) and the MIC90 [8] was 128 µg/mL (≈ 401 µM). The MIC90 [9] was 8 µg/mL (≈ 25.1 µM), the MIC90 [10] was 128 µg/mL (≈ 401 µM) and the MIC90 [11] was over 128 µg/mL.

With CC1COc2c(N3CCN(C)CC3)c(F)cc3c(=O)c(C(=O)O)cn1c23 (stereo not drawn) [OFLX, ofloxacin] the MIC90 [1] was 64 µg/mL (≈ 177 µM), the MIC90 [12] was 8 µg/mL (≈ 22.1 µM) and the “MIC90 Range” value [2] was “≦0.06 μg/ml”. For the same compound, the MIC90 ([2]; read-out: MIC90 Geometric Mean) was at most 0.06 µg/mL, the MIC90 ([2]; read-out: MIC90 Value) was at most 0.06 µg/mL and the MIC90 ([3]; read-out: MIC90 Geometric Mean) was 16 µg/mL (≈ 44.3 µM). The MIC90 ([3]; read-out: MIC90 Value) was over 128 µg/mL, the “MIC90 Range” value [4] was 1 to 2 µg/mL and the MIC90 ([4]; read-out: MIC90 Geometric Mean) was 1.52 µg/mL (≈ 4.21 µM). For the same compound, the MIC90 ([4]; read-out: MIC90 Value) was 2 µg/mL (≈ 5.53 µM), the “MIC90 Range” value [5] was 0.5 to 128 µg/mL and the MIC90 ([5]; read-out: MIC90 Geometric Mean) was 6.5 µg/mL (≈ 18 µM). It also gave an MIC90 ([5]; read-out: MIC90 Value) of 64 µg/mL (≈ 177 µM), an MIC90 ([6]; read-out: MIC90 Geometric Mean) of 104 µg/mL (≈ 288 µM) and an MIC90 ([6]; read-out: MIC90 Value) of over 128 µg/mL. The “MIC90 Range” value [7] was 8 to 64 µg/mL, the MIC90 ([7]; read-out: MIC90 Geometric Mean) was 21.1 µg/mL (≈ 58.4 µM) and the MIC90 ([7]; read-out: MIC90 Value) was 64 µg/mL (≈ 177 µM). The MIC90 [8] was 128 µg/mL (≈ 354 µM), the MIC90 [9] was 2 µg/mL (≈ 5.53 µM) and the MIC90 [10] was 64 µg/mL (≈ 177 µM). The MIC90 [11] was over 128 µg/mL, the “MIC90 Range” value [13] was 1 to 2 µg/mL and the MIC90 ([13]; Streptococcus pneumoniae) was 1 µg/mL (≈ 2.77 µM). It also gave an MIC90 ([14]; ATCC33591, Staphylococcus aureus (ATCC 33591)) of 0.05 µg/mL (≈ 0.138 µM), an MIC90 ([14]; ATCC33592, Staphylococcus aureus (ATCC 33592)) of 0.39 µg/mL (≈ 1.08 µM) and an MIC90 ([14]; ATCC33593, Staphylococcus aureus (ATCC 33593)) of 0.2 µg/mL (≈ 0.553 µM). For the same compound, the MIC90 ([14]; Staphylococcus aureus (No. 395)) was 0.2 µg/mL (≈ 0.553 µM), the MIC90 ([14]; Staphylococcus aureus (No. 415)) was 0.78 µg/mL (≈ 2.16 µM) and the MIC90 ([14]; Staphylococcus aureus (No. 419)) was 3.13 µg/mL (≈ 8.66 µM). The MIC90 ([14]; Staphylococcus aureus (No. 420)) was 1.56 µg/mL (≈ 4.32 µM), the MIC90 ([14]; Staphylococcus aureus (No. 421)) was 1.56 µg/mL (≈ 4.32 µM) and the MIC90 ([15]; ATCC33591, S. aureus (ATCC 33591)) was 0.39 µg/mL (≈ 1.08 µM). It also gave an MIC90 ([15]; ATCC33592, S. aureus (ATCC 33592)) of 0.2 µg/mL (≈ 0.553 µM), an MIC90 ([15]; ATCC33593, S. aureus (ATCC 33593)) of 0.2 µg/mL (≈ 0.553 µM) and an MIC90 ([15]; S. aureus (No. 395)) of 0.39 µg/mL (≈ 1.08 µM). The MIC90 ([15]; S. aureus (No. 415)) was 0.2 µg/mL (≈ 0.553 µM), the MIC90 ([15]; S. aureus (No. 419)) was 0.39 µg/mL (≈ 1.08 µM) and the MIC90 ([15]; S. aureus (No. 420)) was 0.2 µg/mL (≈ 0.553 µM). For the same compound, the MIC90 ([15]; S. aureus (No. 421)) was 0.39 µg/mL (≈ 1.08 µM), the MIC90 ([16]; ATCC11632, S. aureus (ATCC 11632)) was 0.2 µg/mL (≈ 0.553 µM) and the MIC90 ([16]; ATCC13301, S. aureus (ATCC 13301)) was 0.2 µg/mL (≈ 0.553 µM).
